{"source": "patent US4161520A", "about": "“Method of treating hypertension” (priority 1976, dated 1979)", "tested_on": "DOCA Na hypertensive rat", "test": "Antihypertensive activity, subacute oral dosing in the DOCA Na rat (Example 1, Table I)", "type": "in vivo", "description": "A test was conducted for antihypertensive activity in the DOCA Na rat. DOCA rats weighing 170 to 210 grams are used in the test. DOCA Na hypertension is induced by unilateral nephrectomy followed by subcutaneous implantation of a 25 mg. desoxycorticosterone (DOCA) pellet. Animals are placed in individual cages receiving 0.9% sodium chloride solution to drink and rat chow diet ad libitum. Two weeks are allowed to elapse from the time of surgery for development of hypertension, i.e., systolic blood pressure of at least 150 mmHg.\nSystolic blood pressure and heart rate are measured indirectly from the tail pressure pulse of unanesthetized rats, using a pneumatic pulse transducer. Control readings are taken prior to drug and post drug readings are taken at 1, 3, 6 and 24 hours.\nThe experimental results are represented as absolute values. Drug-related alterations in systolic blood pressure are expressed as percentage change by comparing control absolute values with post drug absolute values. Compounds are considered active when about a 15% or greater reduction in blood pressure is obtained. However, the reduction in blood pressure must show mathematical significance ([…]).\nA derivative of the polyether ionophore, lasalocid, i.e., the bromo derivative of lasalocid, was tested in the above screen. The compound was orally administered for a five-day period by intubation and thereafter dosing was discontinued but blood pressure monitoring was continued. The following table illustrates the results obtained utilizing bromolasalocid as the test drug.", "data": [{"smiles": "CC[C@@H](C(=O)[C@@H](C)[C@@H](O)[C@H](C)CCc1c(Br)cc(C)c(O)c1C(=O)O)[C@H]1O[C@](CC)([C@H]2CC[C@](O)(CC)[C@H](C)O2)C[C@@H]1C", "note": "[bromolasalocid]", "values": [{"measurement": "Average Systolic Blood Pressure Per Group", "setting": "5 mg/kg per day oral for 5 days, Day 2 am, pre-drug 209", "value": 206, "unit": "mmHg"}, {"measurement": "Average Systolic Blood Pressure Per Group", "setting": "5 mg/kg per day oral for 5 days, Day 2 pm, pre-drug 209", "value": 194, "unit": "mmHg"}, {"measurement": "Average Systolic Blood Pressure Per Group", "setting": "5 mg/kg per day oral for 5 days, Day 3 pm, pre-drug 209", "value": 191, "unit": "mmHg"}, {"measurement": "Average Systolic Blood Pressure Per Group", "setting": "5 mg/kg per day oral for 5 days, Day 4 am, pre-drug 209", "value": 206, "unit": "mmHg"}, {"measurement": "Average Systolic Blood Pressure Per Group", "setting": "5 mg/kg per day oral for 5 days, Day 5 am, pre-drug 209", "value": 197, "unit": "mmHg"}, {"measurement": "Average Systolic Blood Pressure Per Group", "setting": "5 mg/kg per day oral for 5 days, Day 5 pm, pre-drug 209", "value": 196, "unit": "mmHg"}, {"measurement": "Average Systolic Blood Pressure Per Group", "setting": "10 mg/kg per day oral for 5 days, Day 1 pm, pre-drug 217, p<.05", "value": 192, "unit": "mmHg"}, {"measurement": "Average Systolic Blood Pressure Per Group", "setting": "10 mg/kg per day oral for 5 days, Day 2 am, pre-drug 217, p<.05", "value": 181, "unit": "mmHg"}, {"measurement": "Average Systolic Blood Pressure Per Group", "setting": "10 mg/kg per day oral for 5 days, Day 2 pm, pre-drug 217, p<.05", "value": 166, "unit": "mmHg"}, {"measurement": "Average Systolic Blood Pressure Per Group", "setting": "10 mg/kg per day oral for 5 days, Day 3 am, pre-drug 217, p<.05", "value": 171, "unit": "mmHg"}, {"measurement": "Average Systolic Blood Pressure Per Group", "setting": "10 mg/kg per day oral for 5 days, Day 3 pm, pre-drug 217, p<.05", "value": 163, "unit": "mmHg"}, {"measurement": "Average Systolic Blood Pressure Per Group", "setting": "10 mg/kg per day oral for 5 days, Day 4 am, pre-drug 217, p<.05", "value": 173, "unit": "mmHg"}, {"measurement": "Average Systolic Blood Pressure Per Group", "setting": "10 mg/kg per day oral for 5 days, Day 4 pm, pre-drug 217, p<.05", "value": 157, "unit": "mmHg"}, {"measurement": "Average Systolic Blood Pressure Per Group", "setting": "10 mg/kg per day oral for 5 days, Day 5 pm, pre-drug 217, p<.05", "value": 166, "unit": "mmHg"}, {"measurement": "Period for which blood pressure remained below control after drug dosing", "setting": "after oral dosing for the first five consecutive days", "value": 10, "unit": "days"}]}]}
